One data set deals with BCL-xL in OCI-LY10 cells. The data set can be described thus: Western blot for BCL-xL in ABC cell lines. Format: cell-based. The following applies: voruciclib 5 µM, venetoclax 50 nM or combination, 24 hours. The text has this: Error bars represent SEM.
ECL chemiluminescent substrate (Pierce) and autoradiographic film (ThermoFisher) were used for detection of signals. MCL-1 and BCL-xL signals were quantified using Image Studio Lite (LICOR Biosciences) using β actin for normalization. Student’s t-test was used to compare mean signal intensities across different conditions. The level of significance was set at 0.05.
In general terms: Immunoblotting shows a protein as a band on a membrane.

The nature of data set [1]: Tolerability and body weight in systemic efficacy studies. The method, then: For systemic drug efficacy studies, mice were enrolled when tumors reached an average volume of 150–200 mm^3. Assignment to treatment groups was carried out via stratified randomization. Tumor dimensions were measured twice a week using digital calipers along with recording of body weight. Tumor volume was calculated using formula V = π/6 (length x width x height) in mm^3 [46]. Animals were removed from the study when either any one of the three measured dimensions of the tumor exceeded 2 cm, volume exceeded 2000 mm^3, ulceration was observed or if body weight loss greater than 20% was recorded. […] Control cohorts were administered vehicles of both drugs, and each single agent cohort was administered the vehicle of the other drug.

For data set [2], the system named is relapsed or refractory non-Hodgkin lymphoma (NHL). More on the design: method as in PMID 28095146. The settings on record: relapsed or refractory NHL patients, venetoclax alone; cited from earlier work.
The next data set deals with T1, CDK1/cyc A (Homo sapiens, UniProt P06493).
T1 construct: purchased Reaction Biology Corp (contract assay)
Nature of the data set: Reaction Biology radiometric filter binding kinase assay (10-point IC50 converted to Ki). Format: biochemical. The following applies: ATP near Km; Ki calculated from 10-point IC50. The protocol:
(§1) Ki values for each target were calculated and compared for the two drugs (Fig. 1b–d).
(§2) The ATP concentration was near the Km values for the respective kinases. For each kinase, an IC50 value was calculated from a 10-point concentration curve of the test article and converted to Ki values.

In another data set the target is T2, CDK1/cyc B (Homo sapiens, UniProt P06493).
T2 construct: purchased Reaction Biology Corp (contract assay)
The data set is described as above. The settings on record: ATP near Km; Ki calculated from 10-point IC50. Type of data set: biochemical. The protocol: as §1, §2

A further data set concerns the target T3, CDK4/cyc D1 (Homo sapiens, UniProt P11802).
T3 construct: purchased Reaction Biology Corp (contract assay)
Described as above. Type of data set: biochemical. The settings on record: ATP near Km; Ki calculated from 10-point IC50. The protocol:
as §1, §2

A further data set concerns the target T4, CDK6/cyc D1 (Homo sapiens, UniProt Q00534).
T4 construct: purchased Reaction Biology Corp (contract assay)
Described as above. Format: biochemical. The settings on record: ATP near Km; Ki calculated from 10-point IC50. The protocol: as §1, §2

The target in another data set is T5, ICK (Homo sapiens, UniProt Q9UPZ9).
T5 construct: purchased Reaction Biology Corp (contract assay)
T5 sequence (Q9UPZ9 1-632): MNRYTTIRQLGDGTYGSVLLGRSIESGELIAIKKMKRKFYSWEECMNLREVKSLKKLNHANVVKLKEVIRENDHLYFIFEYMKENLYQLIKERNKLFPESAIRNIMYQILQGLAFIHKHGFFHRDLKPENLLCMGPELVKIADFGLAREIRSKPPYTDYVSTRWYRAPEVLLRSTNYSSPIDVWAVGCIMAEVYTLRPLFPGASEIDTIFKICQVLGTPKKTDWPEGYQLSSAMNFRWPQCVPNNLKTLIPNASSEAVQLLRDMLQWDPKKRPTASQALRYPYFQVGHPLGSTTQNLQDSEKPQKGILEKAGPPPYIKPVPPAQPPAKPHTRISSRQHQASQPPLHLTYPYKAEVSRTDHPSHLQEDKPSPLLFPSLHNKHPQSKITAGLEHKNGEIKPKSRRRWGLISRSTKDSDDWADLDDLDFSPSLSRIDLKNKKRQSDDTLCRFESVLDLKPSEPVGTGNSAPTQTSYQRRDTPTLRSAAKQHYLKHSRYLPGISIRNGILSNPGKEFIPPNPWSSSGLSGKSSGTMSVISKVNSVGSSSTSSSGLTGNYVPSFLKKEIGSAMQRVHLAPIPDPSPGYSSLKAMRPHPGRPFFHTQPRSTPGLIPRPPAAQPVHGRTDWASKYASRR
The data set is described as above. Type of data set: biochemical. The following applies: ATP near Km; Ki calculated from 10-point IC50. The method, then:
as §1, §2

For another data set, the target named is T6, MAK (Homo sapiens, UniProt P20794).
T6 construct: purchased Reaction Biology Corp (contract assay)
T6 sequence (P20794 1-623): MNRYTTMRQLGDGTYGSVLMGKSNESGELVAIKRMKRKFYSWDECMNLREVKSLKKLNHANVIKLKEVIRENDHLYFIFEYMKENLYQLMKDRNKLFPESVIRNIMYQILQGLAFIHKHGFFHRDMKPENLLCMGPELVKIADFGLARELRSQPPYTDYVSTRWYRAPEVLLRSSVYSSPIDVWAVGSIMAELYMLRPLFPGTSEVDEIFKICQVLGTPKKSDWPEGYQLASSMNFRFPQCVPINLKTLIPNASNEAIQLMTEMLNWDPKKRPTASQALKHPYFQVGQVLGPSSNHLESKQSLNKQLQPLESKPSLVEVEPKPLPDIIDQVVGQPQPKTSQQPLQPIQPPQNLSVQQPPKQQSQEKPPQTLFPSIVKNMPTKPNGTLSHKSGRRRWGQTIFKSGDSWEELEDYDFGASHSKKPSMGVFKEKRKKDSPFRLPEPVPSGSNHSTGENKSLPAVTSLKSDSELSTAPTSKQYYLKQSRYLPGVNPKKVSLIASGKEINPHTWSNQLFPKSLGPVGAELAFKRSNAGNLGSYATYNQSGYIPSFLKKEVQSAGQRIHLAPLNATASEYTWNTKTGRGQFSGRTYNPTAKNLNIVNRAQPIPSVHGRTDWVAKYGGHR
The description is as above. Type of data set: biochemical. The following applies: ATP near Km; Ki calculated from 10-point IC50. The protocol: as §1, §2

Data set [3] can be described thus: Modelled plasma drug levels from Phase 1 pharmacokinetic data. The settings on record: humans, 250 mg/day oral, modelled from Phase 1 PK data. The protocol:
(Fig. 2a). Predicted mean plasma levels, once steady state is achieved after about 5 oral doses, fluctuate between 2 and 3.5 μM with an average near 3 μM for our model parameters. […] This was accompanied by apoptosis as represented by cleaved PARP induction starting at 1-2 μM in all models (Figs 2c, S2 and S5). Complete MCL-1 repression was typically observed at 3 μM exposures. […] Maximum, average and minimum plasma levels are shown by the red, green and blue lines respectively. The parameter set derived from the PK data after 13/15 days dosing was used for the 15-day simulation for the steady state levels attained after repeat dosing. (b) Western blot analyses for RNA POL II ([…]), MCL-1, cPARP using protein lysates isolated from SU-DHL-4 cells. β actin was used as the loading control. […] Tumors were resected 4 hours after the final dose and processed for both Western blot and IHC analyses. β actin was used as loading control for the Western blot where each lane represents an individual tumor (Tumor (T) #1-9). MCL-1 signals, normalized to β actin, were quantified and the average MCL-1 signal for each condition relative to vehicle is shown in the corresponding bar graph. Error bars represent standard error of the mean (SEM). […] DAPI was used as counterstain for IHC. Representative images are shown. Scale bar: 1000 μm.

The subject of data set [4] is MCL-1 and cPARP in U2932, RIVA, OCI-LY10, NU-DHL-1, SU-DHL-4 and SU-DHL-6 cells. The data set can be described thus: Western blot for MCL-1 and cPARP in DLBCL cell lines. The settings on record: 0.5 µM–5 µM for 6 hours. Type of data set: cell-based. The method, then:
(§3) Maximum, average and minimum plasma levels are shown by the red, green and blue lines respectively. The parameter set derived from the PK data after 13/15 days dosing was used for the 15-day simulation for the steady state levels attained after repeat dosing. (b) Western blot analyses for RNA POL II (pSer2), MCL-1, cPARP using protein lysates isolated from SU-DHL-4 cells. β actin was used as the loading control. […] Tumors were resected 4 hours after the final dose and processed for both Western blot and IHC analyses. β actin was used as loading control for the Western blot where each lane represents an individual tumor (Tumor (T) #1-9). MCL-1 signals, normalized to β actin, were quantified and the average MCL-1 signal for each condition relative to vehicle is shown in the corresponding bar graph. Error bars represent standard error of the mean (SEM). Asterisks (*) denote p value < 0.05 calculated using the Student’s t-test for comparison of vehicle vs treatment. DAPI was used as counterstain for IHC. Representative images are shown. Scale bar: 1000 µm.
RI-1, also known as RIVA, U2932, NU-DHL-1 cell lines were purchased from DSMZ. SU-DHL-4, SU-DHL-6 were purchased from ATCC. All lines were cultured in RPMI 1640 with L-Glutamine (ThermoFisher),10% fetal bovine serum (Thermofisher), at 37 degrees Celsius, 5% CO2. […]

A further data set has as its system RNA POL II (pSer2). Nature of the data set: Western blot for RNA POL II (pSer2) in SU-DHL-4 cells. Format: cell-based.
In data set [5] the test system is MCL-1 in OCI-LY10 xenograft. Nature of the data set: Western blot and IHC for MCL-1 in tumors after oral dosing. Type of data set: in vivo, mice. The settings on record: 100 mpk or 200 mpk oral daily for 5 days, tumors resected 4 hours after final dose. The method, then:
as §3, with “µm. […]” for “µm.”

Data set [6] has as its system BCL-xL in OCI-LY10 xenograft. The data set can be described thus: Western blot for BCL-xL in tumor lysates after oral dosing. Type of data set: in vivo, mice. The following applies: 100 mpk or 200 mpk oral gavage for 5 days, compared to vehicle. The text has this:
Each lane represents an individual tumor (Tumor (T) #1–9). BCL-xl signals, normalized to β actin, were quantified and the average BCL-xl signal for each condition relative to vehicle is shown in the corresponding bar graph. Error bars represent SEM. Asterisks (*) denote p value < 0.05 calculated using the Student’s t-test for comparison of vehicle vs treatment.
20 micrograms of protein lysate from each condition were subjected to SDS-PAGE and transferred to 0.45 micron PVDF membranes (ThermoFisher) using manufacturer’s protocol, blocked for one hour in 5% milk at room temperature, probed with primary antibodies for cPARP (rabbit CST 5625), MCL-1 (rabbit CST 39224) or BCL-xL (rabbit CST 2764), followed by corresponding HRP-conjugated secondary antibodies (Jackson ImmunoResearch). β actin (mouse CST 12262) was used as loading control. ECL chemiluminescent substrate (Pierce) and autoradiographic film (ThermoFisher) were used for detection of signals. MCL-1 and BCL-xL signals were quantified using Image Studio Lite (LICOR Biosciences) using β actin for normalization. Student’s t-test was used to compare mean signal intensities across different conditions. The level of significance was set at 0.05.

On the set-up of data set [7]: method as in earlier work. The settings on record: 350 mg/day, one patient out of 24; cited from earlier work.
The conditions of data set [8]: cited from earlier work.

Structures are written as SMILES. pKi: −log10 of the molar value. Read-outs that look alike come from different tables or passages of the source.

As a reminder, the pKi is the negative decadic logarithm of the Ki, by convention in mol/L.

T4 sequence (Q00534 whole entry): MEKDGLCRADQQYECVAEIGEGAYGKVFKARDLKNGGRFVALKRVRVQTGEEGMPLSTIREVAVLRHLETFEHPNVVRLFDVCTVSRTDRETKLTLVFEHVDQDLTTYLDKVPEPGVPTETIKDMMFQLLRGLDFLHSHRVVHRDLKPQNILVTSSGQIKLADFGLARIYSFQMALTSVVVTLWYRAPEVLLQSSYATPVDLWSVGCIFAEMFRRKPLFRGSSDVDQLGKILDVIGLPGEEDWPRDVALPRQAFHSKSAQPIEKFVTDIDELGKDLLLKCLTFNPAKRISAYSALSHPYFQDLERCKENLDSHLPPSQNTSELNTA
T4 sequence (P24385 whole entry partner): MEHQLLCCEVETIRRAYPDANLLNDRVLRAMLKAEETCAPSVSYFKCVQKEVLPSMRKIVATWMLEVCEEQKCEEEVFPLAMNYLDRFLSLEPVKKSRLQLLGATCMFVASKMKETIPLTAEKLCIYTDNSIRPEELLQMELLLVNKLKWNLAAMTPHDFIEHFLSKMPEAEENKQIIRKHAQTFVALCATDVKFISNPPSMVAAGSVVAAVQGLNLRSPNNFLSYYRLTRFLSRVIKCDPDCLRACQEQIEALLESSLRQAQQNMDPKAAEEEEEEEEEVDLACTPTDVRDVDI
T2 sequence (P06493 whole entry): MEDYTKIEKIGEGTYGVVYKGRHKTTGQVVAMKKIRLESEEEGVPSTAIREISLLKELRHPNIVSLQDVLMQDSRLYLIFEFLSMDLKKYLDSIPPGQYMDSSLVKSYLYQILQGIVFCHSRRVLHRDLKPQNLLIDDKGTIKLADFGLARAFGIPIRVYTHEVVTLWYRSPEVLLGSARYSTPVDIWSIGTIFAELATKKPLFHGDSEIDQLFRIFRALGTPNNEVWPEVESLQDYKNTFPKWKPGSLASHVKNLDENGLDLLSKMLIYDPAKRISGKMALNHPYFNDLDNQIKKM
T2 sequence (P14635 whole entry partner): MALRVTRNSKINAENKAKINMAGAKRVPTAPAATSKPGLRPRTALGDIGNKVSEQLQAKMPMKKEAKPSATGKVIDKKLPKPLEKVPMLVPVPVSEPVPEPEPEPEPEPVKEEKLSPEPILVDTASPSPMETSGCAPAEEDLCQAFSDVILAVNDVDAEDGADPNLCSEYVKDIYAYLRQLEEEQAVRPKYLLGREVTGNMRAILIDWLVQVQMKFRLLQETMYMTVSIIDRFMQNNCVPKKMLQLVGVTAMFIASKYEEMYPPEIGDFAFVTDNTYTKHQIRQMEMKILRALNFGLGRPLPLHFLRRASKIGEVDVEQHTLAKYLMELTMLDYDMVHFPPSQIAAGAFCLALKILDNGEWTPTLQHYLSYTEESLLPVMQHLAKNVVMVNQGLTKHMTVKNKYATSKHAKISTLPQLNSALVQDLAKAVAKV
T1 sequence (P06493 whole entry): as the sequence (P06493 whole entry) above
T1 sequence (P20248 whole entry partner): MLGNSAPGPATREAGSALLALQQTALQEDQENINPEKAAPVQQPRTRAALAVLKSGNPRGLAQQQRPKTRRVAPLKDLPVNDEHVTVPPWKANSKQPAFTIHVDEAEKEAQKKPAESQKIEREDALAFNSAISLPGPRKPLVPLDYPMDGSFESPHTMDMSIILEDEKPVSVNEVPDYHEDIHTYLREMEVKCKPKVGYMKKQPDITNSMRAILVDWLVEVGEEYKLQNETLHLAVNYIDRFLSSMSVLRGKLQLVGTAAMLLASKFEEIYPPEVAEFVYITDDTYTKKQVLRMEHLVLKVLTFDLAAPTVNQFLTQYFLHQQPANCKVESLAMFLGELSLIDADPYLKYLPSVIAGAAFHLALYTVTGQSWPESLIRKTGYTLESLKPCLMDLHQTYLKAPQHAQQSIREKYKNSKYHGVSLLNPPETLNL
T3 sequence (P11802 whole entry): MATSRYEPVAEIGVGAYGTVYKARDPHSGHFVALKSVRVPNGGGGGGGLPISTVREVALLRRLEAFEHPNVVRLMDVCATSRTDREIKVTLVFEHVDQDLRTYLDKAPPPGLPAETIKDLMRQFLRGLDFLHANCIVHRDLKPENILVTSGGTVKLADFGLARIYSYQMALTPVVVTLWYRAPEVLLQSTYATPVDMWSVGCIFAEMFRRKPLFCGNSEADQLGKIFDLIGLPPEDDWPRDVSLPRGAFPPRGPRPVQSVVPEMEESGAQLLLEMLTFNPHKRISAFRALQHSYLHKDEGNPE
T3 sequence (P24385 whole entry partner): as the sequence (P24385 whole entry partner) above

Take `CC1(C)CCC(CN2CCN(c3ccc(C(=O)NS(=O)(=O)c4ccc(NCC5CCOCC5)c([N+](=O)[O-])c4)c(Oc4cnc5[nH]ccc5c4)c3)CC2)=C(c2ccc(Cl)cc2)C1` [Venetoclax, reference compound]: the “BCL-xL levels in cell lysates” value in the data set with BCL-xL in OCI-LY10 cells was “elevated levels of BCL-xL”. The “tolerability, toxicity and body weight changes” value in [1] (xenografted mice (U2932, RIVA, OCI-LY10, NU-DHL-1, SU-DHL-4), oral regimens, first two cycles of treatment) is listed as “not induce any significant body weight changes”. In data set [2], the median progression-free survival is given as 1 month and the overall response rate is 18%.
As for `CN1CC[C@@H](c2c(O)cc(O)c3c(=O)cc(-c4ccc(C(F)(F)F)cc4Cl)oc23)[C@@H]1CO` [Voruciclib], the negative logarithm of the Ki (pKi) was 8.04 on CDK1/cyc A; 8.27 at CDK1/cyc B; 8.40 at CDK4/cyc D1; 8.53 at CDK6/cyc D1; 6.32 on ICK; 6.59 on MAK. Moreover, in data set [3], the “Predicted mean plasma levels at steady state (average)” value is reported as roughly 3 µM. The “exposure giving complete MCL-1 repression” value in [4] (6 DLBCL models) is roughly 3 µM. For the same molecule, the “concentration at which cleaved PARP induction (apoptosis) starts” value in data set [4] (all 6 DLBCL models) is 1 to 2 µM. Further, the “phosphorylation of RNA POL II” value in the data set with RNA POL II (pSer2) is given as “inhibition of phosphorylation of RNA POL II”. Moreover, in data set [5], the “MCL-1 protein expression in tumors” value is recorded as “decreased in a dose-dependent manner”. The “BCL-xL levels in tumor lysates” value in data set [6] is given as “elevated levels of BCL-xL”. The “BCL-xL levels in cell lysates” value in the data set with BCL-xL in OCI-LY10 cells is listed as “elevated levels of BCL-xL”. Besides, in data set [1] (mouse, in vivo, po), the “tolerability, toxicity and body weight changes” value is “not induce any significant body weight changes”. Moreover, the “patients with dose-limiting diarrhea” value in data set [7] is recorded as 4%. In addition, the oral bioavailability entry in [8] (has been shown, reference not given) was “orally bioavailable”.
For the molecule `CCc1cnn2c(NCc3ccc[n+]([O-])c3)cc(N3CCCC[C@H]3CCO)nc12` [dinaciclib], the oral bioavailability entry in data set [8] is recorded as “neither of these two agents are orally bioavailable”.
Regarding `CN1CC[C@H](c2c(O)cc(O)c3c(=O)cc(-c4ccccc4Cl)oc23)[C@H](O)C1` [Flavopiridol, reference compound], the pKi at ICK is 7.93; on MAK it was 8.97. The oral bioavailability entry in data set [8] is recorded as “neither of these two agents are orally bioavailable”.

Values taken from paper PMC5740070 (Scientific Reports, 2017).
